Reference: patent US8088567B2, “Human immortalised neural precursor cell line” (NsGene A/S, priority 2005, dated 2012)
Entries after “also recorded” stand apart in the source; their conditions may differ.

Assays:
[1] = tested on: NGC-407 & U343MGa-cl 2:6 cells; assay: Gap junction communication by calcein dye transfer, NGC-407 to U343MGa-cl 2:6; format: cell-based, human; conditions: PB 0.5 mM donor, 4 mM recipient for 72 hours, 4 hours co-culture at 0.5 mM
Protocol: Donor human embryonic neural stem cells (NGC-407) and recipient human glioblastoma cells (U343MGa-cl 2:6) were grown each in 2 separate 35 mm Petri dishes (1×10^5/dish). For NGC-407 cells the plates were poly-L-lysine (Sigma) coated and the medium was DMEM/F12 1:1 with glutamax I (Invitrogen) containing 40 ng/ml bFGF2 (R&D Systems), 20 ng/ml rhEGF, 1× N2 supplement, 1× non-essential amino acid, 5 mM HEPES buffer solution (from Invitrogen), 0.5% human serum albumin and 6 g/L D-glucose (from Sigma). The recipient cells were grown in DMEM containing 10% FBS, 100 units/ml penicillin and 100 μg/ml streptomycin (from Invitrogen). When the cells were approx. 60% confluent, treatment with 0 & 0.5 mM 4-Phenyl Butyrate (PB) for donor cells and 0 & 4 mM PB for recipient cells was started and continued for 72 hours. The donor cells were then double labelled by incubating with 1 ml of cell medium containing 10 μM Dil and 5 μM Calcein-AM (Molecular Probes) for 20 min. After aspiration of the dye containing medium the cells were washed 4-5 times with pure medium and then with PBS to get rid of free dye. After a very brief trypsinization the cells were centrifuged and resuspended in co-culture medium (donor cell medium including 0.5% FBS). The medium of recipient cells was replaced by co-culture medium and 5×10^4 donor cells were added to one recipient plate. […]

[2] = tested on: NGC-407 cells; assay: Gap junction communication by fluorescent dye transfer between NGC-407 cells; format: cell-based, human; conditions: differentiating and proliferating conditions
Protocol: (§1) This was analyzed semi-quantitatively/qualitatively by using fluorescent dye transfer techniques. It is evident that the GJC is enhanced by 4-PB both under differentiating and proliferating conditions in vitro. This is relevant since the in vivo environment may present transplanted cells with conditions that stimulate neither differentiation nor proliferation.

[3] = tested on: NGC-407 cells and U87 gioblastoma cells; assay: Gap junction communication by fluorescent dye transfer, NGC-407 and U87; format: cell-based, human; conditions: differentiating and proliferating conditions
Protocol: as §1

[4] = tested on: U87MG xenograft tumor; assay: In vivo migration of GFP-expressing NGC-407 cells in nude rat model of human glioblastoma multiforme; design: species or system nude rats; conditions: PB 250 mg/kg intraperitoneally twice daily, 2 weeks
Protocol: 8-9 weeks old athymic nude male rats (rnu/rnu; Harlan, Germany) with an average weight of 200 g were used in our human glioblastoma multiforme xenograft model. They were housed in a group of 3 in standardized big cages in 50-70% relative humidity and 20°-24° C. temperature with 12/12 day/night variation. Food (Ad libitum), water and other materials used for these immunocompromised animals were autoclaved before use. Animals were anesthesitized by isoflurane inhalation and the head was fixed in a stereo tactic apparatus. Under microscopic guidance a burr hole of 1 mm diameter was made over the right hemisphere, 2 mm right lateral to the bregma. Using a Hamilton syringe of 5 μl volume 1.5×10^5 U87MG cells in 3 μl volume were slowly injected through the burr hole at a depth of 3.5 mm from the surface to reach the corpus callosum.
2×10^6 neural progenitors (NGC-407) recombinantly expressing green fluorescent protein (GFP), were plated in a 100 mm Petri dish and were grown as neurospheres for 48 hours. […]
Histopathological analysis of the sections was carried out by haematoxylin and eosin staining to determine the size and location of the implants. […] Immunohistochemically the tumor location was determined by correlating with the histological analysis and by the cell density while the sections were counter-stained with hoechst.

[5] = tested on: NGC-407 wt cells; assay: Cell killing effect of AZT, XTT viability assay, parental cells; format: cell-based, human; conditions: parental NGC-407 cell line, 120 hours drug exposure
Protocol: Cell culture The human neuronal progenitor cell line NGC-407 was cultured in DMEM/F12 (Gibco #31331-028) conditioned with Human Serum Albunim (HSA) (Sigma #A 1653), N2 (Gibco #17502-048), B27 (Gibco #17504-044), Glucose (Sigma #G8769), bFGF (R&D Systems #233-FB), EGF (R& Systems #236-EG), MEM NEAA, x100 (Gibco #11140-035), HEPES (Gibco #15630-056), in poly-L-lysine (Sigma #P4832) coated flasks/Plates (CM-Lab, Denmark). Cells were grown at 37° C. and 5% CO2 in a humidified incubator.
(§2) Exponentially growing NGC-407 wt and tomato kinase (ZG561) expressing cells were plated at a density of 5.000 cells/well in poly-L-lysine coated 96-well plates in 100 μl conditioned medium and incubated 37° C. in a humidified incubator with a gas phase of 5% CO2. After 48 hours, medium was replaced with medium containing varying concentrations of AZT starting at 20 mM and down. […] The chemo resistance of cultured cells was monitored by the surviving cell fraction as a function of the drug concentration. Viability of cells was determined via the colorimetric XTT assay (XTT kit II-Roche, cat no. 1465015). […] The absorbance at 450 and 690 nm was determined using an ELISA plate reader (Ascent, ThermoLab). The IC50 value (50% inhibition concentration) of the investigated compound was calculated as the mean value of each experiment using SigmaPlot® (Dyrberg Trading, DK).

[6] = tested on: tomato kinase (ZG561) expressing NGC-407 cells; assay: Cell killing effect of AZT, XTT viability assay, tomato kinase expressing cells; format: cell-based, human
Protocol: The constructed pLHCXZ (Clontech) plasmid vector pZG561 (coding for a Tomato Thymidine kinase I with a C-terminal deletion of 26 amino acids, WO 03/100045) and pVPack-GP (Stratagene) plus pVPack-VSV-G (Stratagene) were transfected into the packaging cells using LipofectAMINE PLUS (Invitrogen-Life Technologies, Inc.) according to the protocol provided by the supplier. The medium from the transfected cells, cultured in DMEM (Invitrogen), was collected 48 and 72 hours post transfection, filtered through a 0.45 μm filter, pelleted by ultracentrifugation (50.000g, 90 min at 4° C.) and dissolved in DMEM (Invitrogen). The titer of the virus was determined by reverse transcriptase assay. […]
The day before transduction, 1×10^6 cells/well were seeded in 6-well plates. […] Subsequently cells were ready for experiments.
as §2, with “CO2.” for “CO2. After 48 hours, medium was replaced with medium containing varying concentrations of AZT starting at 20 mM and down.”, “The IC50 value (50% inhibition concentration) of the investigated compound was calculated as the mean value of each experiment using SigmaPlot® (Dyrberg Trading, DK).” left out

[7] = tested on: transfected cell line; conditions: cited from earlier work

Molecule: O=C(O)CCCc1ccccc1 [4-PB, 4-Phenyl Butyrate]
- gap junction communication NGC-407 to U343MGa-cl 2:6 (calcein transfer) [1]: significantly enhanced
- gap junction communication NGC-407 to U343MGa-cl 2:6 (calcein transfer) ([1]; listed as PB): number of green recipient cells has also been significantly increased
- gap junction communication (GJC) between NGC-407 cells [2]: enhances the gap junction communication
- gap junction communication (GJC) between NGC-407 cells and U87 gioblastoma cells [3]: enhances the gap junction communication
- GFP staining / GFP positive cells around and inside the tumor [4]: enhanced the GFP staining; also recorded: increases the number of GFP positive cells

Molecule: Cc1cn([C@H]2C[C@H](N=[N+]=[N-])[C@@H](CO)O2)c(=O)[nH]c1=O [AZT]
- IC50 [5]: 11.8 mM
- IC50 ([6]; Hygromycin selected ZG561 (tomato TK) NGC-407 cells, 120 hours drug exposure, XTT): 0.051 mM
- Sensitisation of NGC-407 cells towards AZT by Tomato Thymidine kinase ([6]; ZG561 cells versus parental cells): 230 fold

B1: B5: mutant Drosophila melanogaster deoxyribonucleoside kinase variant, SEQ ID NO 5 (protein)
chain: MAEAASCARKGTKYAEGTQPFTVLIEGNIGSGKTTYLNHFEKYKNDICLLTEPVEKWRNVNGVNLLELMYKDPKKWAMPFQSYATLTMLQSHTAPTNKKLKIMERSIFSARYCFVENMRRNGSLEQGMYNTLEEWYKFIEESIHVQADLIIYLRTSPEVAYERIRQRARSEESCVPLKYLQELHELHEDWLIHQRRPQSCKVLVLDADLDLENIGTEYQRSESSIFDAISSNQQPSPVPVSPSKRQRVAR
modifications: Drosophila melanogaster
- degree of activation for gemcitabine relative to wild type Dm dNK [7]: approximately 50 times
